Data: patent US20140057915A1, “KINASE INHIBITORS” (TOPIVERT PHARMA LIMITED, priority 2012, published 2014)
Values belong to the compound of their own block, whether it stands above or below them.

Columns and labels:
[1] = system: TNFα release, d-U937 cells; test: LPS-induced TNFα release in d-U937 cells; format: cell-based; details: Homo sapiens, dU937; relative to 10 μg/mL BIRB796; Table 4c1; read-out: LPS Induced Release of Cytokine in d-U937 Cells, TNFα REC50
How it was run: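 Sandwich ELISA quantifies cytokine in supernatants after 4 hr LPS challenge (0.1 μg/mL) of PMA-differentiated (100 ng/mL, 48–72 hr) U937 macrophages given compound 2 hr beforehand. REC50 derived from concentration-response curve, inhibition calculated relative to vehicle.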

cSrc = cSrc (Homo sapiens, UniProt P12931); test: c-Src enzyme inhibition (FRET); format: biochemical; details: Table 4a1
How it was run: (§1)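 2 hr RT enzyme + cpd (added solns 4/0.4/0.04/0.004 μg/mL); + FRET peptide (8 μM soln) + ATP soln (c-Src 800 μM, Syk 60 μM), 1 hr; protease development 1 hr; read donor/acceptor emission ratio.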

GSK3α = GSK3α (Homo sapiens, UniProt P49840); test: GSK 3α enzyme inhibition (FRET), Method 1; format: biochemical; details: Table 4a1
How it was run: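 Compounds are tested at added-solution levels of 4, 0.4, 0.04 or 0.004 μg/mL against GSK3α, with a 2 hr RT preincubation. Kinase reaction with FRET peptide and ATP (8 μM and 40 μM as added) runs 1 hr, and phosphorylation is judged by the protease-sensitive FRET ratio.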

d-U937 cells = test: Cell viability: MTT assay; format: cell-based, human; details: 1 μg/mL
How it was run: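 MTT reduction (1 h, DMSO solubilisation, A550) measured after compound treatment at 1 or 10 μg/mL of differentiated U937 cells for 4 h (5% FCS RPMI1640) or 24 h (10% FCS). Percentage viability loss computed relative to 0.5% DMSO vehicle, with increases tabulated as negative values.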

Syk = Syk (Homo sapiens, UniProt P43405); test: Syk enzyme inhibition (FRET); format: biochemical; details: Table 4a1
How it was run: as §1

[2] = system: ICAM-1 expression, BEAS2B cells; test: Poly I:C-induced ICAM-1 expression in BEAS2B cells; format: cell-based; details: Homo sapiens, BEAS-2B; read-out: Poly IC induced ICAM1 in BEAS2B, IC50
How it was run: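 Cell-based ELISA for surface ICAM-1 in human BEAS2B cells 18 h after transfection with the RNA-virus mimic poly I:C (1 μg/mL, with Oligofectamine), compounds added 2 h beforehand. OD450–655 divided by Crystal Violet OD595 per well; percent inhibition relative to vehicle.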

[3] = system: IL-8 release, d-U937 cells; test: LPS-induced IL-8 release in d-U937 cells; format: cell-based; details: Homo sapiens, dU937; Table 4c1; read-out: LPS Induced Release of Cytokine in d-U937 Cells, IL-8 IC50
How it was run: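 IL-8 release after a 4 hr challenge with LPS (0.1 μg/mL, E. coli 0111:B4) following a 2 hr compound pretreatment. Cells were human U937 monocytes differentiated to macrophage-type with PMA 100 ng/mL for 48–72 hr. Relative 50% effective concentration derived from concentration–response data.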

GSK3α, sequence (P49840 whole entry): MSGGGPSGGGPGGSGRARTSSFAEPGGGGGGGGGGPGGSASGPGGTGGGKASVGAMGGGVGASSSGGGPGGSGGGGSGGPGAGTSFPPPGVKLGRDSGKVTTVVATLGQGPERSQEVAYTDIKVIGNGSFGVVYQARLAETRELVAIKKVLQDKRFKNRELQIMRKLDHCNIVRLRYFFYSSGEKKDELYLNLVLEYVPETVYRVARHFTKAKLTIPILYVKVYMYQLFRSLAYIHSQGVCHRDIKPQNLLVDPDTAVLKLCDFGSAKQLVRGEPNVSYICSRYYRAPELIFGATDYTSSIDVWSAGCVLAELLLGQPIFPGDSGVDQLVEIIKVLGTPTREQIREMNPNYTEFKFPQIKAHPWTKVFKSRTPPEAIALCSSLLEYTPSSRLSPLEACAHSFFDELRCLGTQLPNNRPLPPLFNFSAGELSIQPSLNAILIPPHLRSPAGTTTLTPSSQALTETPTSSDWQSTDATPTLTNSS
cSrc, sequence (P12931 whole entry): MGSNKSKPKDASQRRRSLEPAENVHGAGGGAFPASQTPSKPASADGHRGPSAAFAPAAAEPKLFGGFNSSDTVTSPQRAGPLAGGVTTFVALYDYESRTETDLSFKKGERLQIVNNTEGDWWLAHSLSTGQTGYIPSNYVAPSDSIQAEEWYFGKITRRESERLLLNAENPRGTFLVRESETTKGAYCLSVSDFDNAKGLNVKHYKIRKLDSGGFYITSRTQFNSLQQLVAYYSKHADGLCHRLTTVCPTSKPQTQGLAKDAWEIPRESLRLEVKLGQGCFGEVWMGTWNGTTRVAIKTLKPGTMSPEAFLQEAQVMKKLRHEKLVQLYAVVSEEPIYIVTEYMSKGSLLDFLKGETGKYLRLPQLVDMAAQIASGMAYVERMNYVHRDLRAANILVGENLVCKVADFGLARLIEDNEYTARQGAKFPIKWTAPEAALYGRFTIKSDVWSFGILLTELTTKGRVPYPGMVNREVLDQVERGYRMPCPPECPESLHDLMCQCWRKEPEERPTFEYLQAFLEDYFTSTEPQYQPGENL

Structure (SMILES): Cc1csc(-n2nc(C(C)(C)C)cc2NC(=O)Nc2ccc(Oc3ccnc(Nc4cccc(C(=O)NCCN5CCOCC5)c4)n3)c3ccccc23)c1 [Example 24, 3-((4-((4-(3-(3-(tert-butyl)-1-(4-methylthiophen-2-yl)-1H-pyrazol-5-yl)ureido)naphthalen-1-yl)oxy)pyrimidin-2-yl)amino)-N-(2-morpholinoethyl)benzamide]
EC50 [1]: 1.4 nM
IC50 (cSrc): 1 nM
IC50 (GSK3α): 207 nM
Cell viability at time point in d-U937 cells, 4 h (d-U937 cells): −ve (−ve and +ve indicate that the value is below and above respectively, the no significant effect threshold, defined as 30% inhibition at 1 μg/mL at the time point indicated)
Cell viability at time point in d-U937 cells, 24 h (d-U937 cells): −ve (−ve and +ve indicate that the value is below and above respectively, the no significant effect threshold, defined as 30% inhibition at 1 μg/mL at the time point indicated)
IC50 (Syk): 14 nM
IC50 [2]: 1 nM
IC50 [3]: 0.3 nM

Structure (SMILES): COc1ccc(-n2nc(C(C)(C)C)cc2NC(=O)Nc2ccc(Oc3ccnc(Nc4cc(OC)cc(C(N)=O)c4)n3)c3ccccc23)cc1 [Example 41, 3-((4-((4-(3-(3-(tert-butyl)-1-(4-methoxyphenyl)-1H-pyrazol-5-yl)ureido)naphthalen-1-yl)oxy)pyrimidin-2-yl)amino)-5-methoxybenzamide]
EC50 [1]: 0.4 nM
IC50 (cSrc): 10 nM
IC50 (GSK3α): 1200 nM
Cell viability at time point in d-U937 cells, 4 h (d-U937 cells): −ve (−ve and +ve indicate that the value is below and above respectively, the no significant effect threshold, defined as 30% inhibition at 1 μg/mL at the time point indicated)
Cell viability at time point in d-U937 cells, 24 h (d-U937 cells): −ve (−ve and +ve indicate that the value is below and above respectively, the no significant effect threshold, defined as 30% inhibition at 1 μg/mL at the time point indicated)
IC50 (Syk): 15 nM
IC50 [2]: 2 nM
IC50 [3]: 0.4 nM

Structure (SMILES): CCCNC(=O)c1cccc(Nc2nccc(Oc3ccc(NC(=O)Nc4cc(C(C)(C)C)nn4-c4ccc(OC)cc4)c4ccccc34)n2)c1 [Example 17, 3-(4-(4-(3-(3-tert-butyl-1-(4-methoxyphenyl)-1H-pyrazol-5-yl)ureido)naphthalen-1-yloxy)pyrimidin-2-ylamino)-N-propylbenzamide]
EC50 [1]: 1.5 nM
IC50 (cSrc): 3 nM
IC50 (GSK3α): 309 nM
Cell viability at time point in d-U937 cells, 4 h (d-U937 cells): −ve (−ve and +ve indicate that the value is below and above respectively, the no significant effect threshold, defined as 30% inhibition at 1 μg/mL at the time point indicated)
Cell viability at time point in d-U937 cells, 24 h (d-U937 cells): −ve (−ve and +ve indicate that the value is below and above respectively, the no significant effect threshold, defined as 30% inhibition at 1 μg/mL at the time point indicated)
IC50 (Syk): 35 nM
IC50 [2]: 2.6 nM
IC50 [3]: 1.8 nM

Structure (SMILES): Cc1ccc(-n2nc(C(C)(C)C)cc2NC(=O)Nc2ccc(Oc3ccnc(Nc4cc(Br)cc(C(=O)NCCN5CCOCC5)c4)n3)c3ccccc23)cc1 [Example 62, 3-bromo-5-((4-((4-(3-(3-(tert-butyl)-1-(p-tolyl)-1H-pyrazol-5-yl)ureido)naphthalen-1-yl)oxy)pyrimidin-2-yl)amino)-N-(2-morpholinoethyl)benzamide]
EC50 [1]: 1.4 nM
IC50 (cSrc): 7 nM
IC50 (GSK3α): 995 nM
Cell viability at time point in d-U937 cells, 4 h (d-U937 cells): −ve (−ve and +ve indicate that the value is below and above respectively, the no significant effect threshold, defined as 30% inhibition at 1 μg/mL at the time point indicated)
Cell viability at time point in d-U937 cells, 24 h (d-U937 cells): +ve (−ve and +ve indicate that the value is below and above respectively, the no significant effect threshold, defined as 30% inhibition at 1 μg/mL at the time point indicated)
IC50 (Syk): 13 nM
IC50 [2]: 1 nM
IC50 [3]: 1.8 nM

Second part, led by results:

EC50 [1]: 1.2 nM
IC50 (cSrc): 4 nM
IC50 (GSK3α): > 13000 nM
IC50 (Syk): 202 nM
IC50 [3]: 2.1 nM
Structure (SMILES): COc1cc(Nc2cc(Oc3ccc(NC(=O)Nc4cc(C(C)(C)C)nn4-c4ccc(C)cc4)c4ccccc34)ncn2)cc(C(=O)NCCN2CCOCC2)c1 [Example 72]
Cell viability at time point in d-U937 cells, 4 h (d-U937 cells): −ve (−ve and +ve indicate that the value is below and above respectively, the no significant effect threshold, defined as 30% inhibition at 1 μg/mL at the time point indicated)
Cell viability at time point in d-U937 cells, 24 h (d-U937 cells): −ve (−ve and +ve indicate that the value is below and above respectively, the no significant effect threshold, defined as 30% inhibition at 1 μg/mL at the time point indicated)
IC50 [2]: 2.6 nM

EC50 [1]: 2.7 nM
IC50 (cSrc): < 1 nM
IC50 (GSK3α): 5770 nM
IC50 (Syk): 547 nM
IC50 [3]: 1.9 nM
Structure (SMILES): COc1cc(Nc2cc(Oc3ccc(NC(=O)Nc4cc(C(C)C)nn4-c4ccc(C)cc4)c4ccccc34)ncn2)cc(C(=O)NCCN2CCOCC2)c1 [Example 71, 3-((6-((4-(3-(3-isopropyl-1-(p-tolyl)-1H-pyrazol-5-yl)ureido)naphthalen-1-yl)oxy)pyrimidin-4-yl)amino)-5-methoxy-N-(2-morpholinoethyl)benzamide]
Cell viability at time point in d-U937 cells, 4 h (d-U937 cells): −ve (−ve and +ve indicate that the value is below and above respectively, the no significant effect threshold, defined as 30% inhibition at 1 μg/mL at the time point indicated)
Cell viability at time point in d-U937 cells, 24 h (d-U937 cells): −ve (−ve and +ve indicate that the value is below and above respectively, the no significant effect threshold, defined as 30% inhibition at 1 μg/mL at the time point indicated)
IC50 [2]: 7.3 nM

EC50 [1]: 1.6 nM
IC50 (cSrc): 6 nM
IC50 (GSK3α): > 14300 nM
IC50 (Syk): 234 nM
IC50 [3]: 3.4 nM
Structure (SMILES): COCCNC(=O)c1cc(Nc2nccc(Oc3ccc(NC(=O)Nc4cc(C(C)C)nn4-c4ccc(C)cc4)c4ccccc34)n2)cc(OC)c1 [Example 66, 3-((4-((4-(3-(3-isopropyl-1-(p-tolyl)-1H-pyrazol-5-yl)ureido)naphthalen-1-yl)oxy)pyrimidin-2-yl)amino)-5-methoxy-N-(2-methoxyethyl)benzamide]
Cell viability at time point in d-U937 cells, 4 h (d-U937 cells): −ve (−ve and +ve indicate that the value is below and above respectively, the no significant effect threshold, defined as 30% inhibition at 1 μg/mL at the time point indicated)
Cell viability at time point in d-U937 cells, 24 h (d-U937 cells): −ve (−ve and +ve indicate that the value is below and above respectively, the no significant effect threshold, defined as 30% inhibition at 1 μg/mL at the time point indicated)
IC50 [2]: 2.2 nM

EC50 [1]: 0.2 nM
IC50 (cSrc): < 1 nM
IC50 (GSK3α): 111 nM
IC50 (Syk): 2 nM
IC50 [3]: 0.5 nM
Structure (SMILES): COc1cc(Nc2nccc(Oc3ccc(NC(=O)Nc4cc(C(C)C)nn4-c4ccc(C)cc4)c4ccccc34)n2)cc(C(=O)N(C)CCN2CCOCC2)c1 [Example 68, 3-((4-((4-(3-(3-isopropyl-1-(p-tolyl)-1H-pyrazol-5-yl)ureido)naphthalen-1-yl)oxy)pyrimidin-2-yl)amino)-5-methoxy-N-methyl-N-(2-morpholinoethyl)benzamide]
Cell viability at time point in d-U937 cells, 4 h (d-U937 cells): −ve (−ve and +ve indicate that the value is below and above respectively, the no significant effect threshold, defined as 30% inhibition at 1 μg/mL at the time point indicated)
Cell viability at time point in d-U937 cells, 24 h (d-U937 cells): −ve (−ve and +ve indicate that the value is below and above respectively, the no significant effect threshold, defined as 30% inhibition at 1 μg/mL at the time point indicated)
IC50 [2]: 3.9 nM
